The source of these data is patent publication US20060257484A1, “Combination of tramadol and substances that comprise gabapentin” (priority 2005, published 2006).

A short description of series [1]: Expected human pharmacokinetic parameters at 200 mg tramadol per day (model matching rat AUCinf ratio). The class given is in vivo. The following applies: 200 mg tramadol per day for humans; for expected Cavg: gabapentin at 6.77 fold AUC ratio (daily dose 505 mg gabapentin equivalent). The source says: Additional ranges can be determined for other species.
For series [2] the following is noted: steady state, cited from earlier work.
For series [3] the following is noted: single oral dose 10 mg/kg tramadol HCl, 8 male Sprague-Dawley rats, cited from earlier work.
The conditions of series [4]: higher doses increase less than expected; cited from earlier work.
The next series relates to Chung model. The settings on record: Chung model disclosed in Codd; cited from earlier work.
For series [5] the following is noted: single oral dose 25 mg/kg gabapentin, 6 male Sprague-Dawley rats; cited from earlier work.
Series [6] in a line: Expected pharmacokinetic parameters in rat after tramadol HCl plus gabapentin (model). The source says:
In another modeling approach, the dose of gabapentin for humans can be evaluated in order to match the AUCinf ratio for gabapentin to tramadol and O-demthyltramadol in rat.

The conditions of series [7]: cited from earlier work.
Setting [8] is: Immediate Release Capsule, 50 mg four times daily.
Setting [9] is: Modified Release Formulation, 200 mg once daily.
Setting [10] is: after five days of tramadol 100 mg twice daily.
Setting [11] is: single administration of 10 mg/kg tramadol HCl and 5 mg/kg gabapentin, assuming no pharmacokinetic interaction.

Counter-ions that a name gives are not always drawn. Like-named read-outs stand apart in the source and are kept apart here.

As a reminder, the ED50 is the dose at which the effect has come halfway, by size or by number of responders.

On to `COc1cccc([C@@]2(O)CCCC[C@@H]2CN(C)C)c1` [(+)-trans-T], for which, in series [1], the “expected Cmax” value amounted to 190 ng/mL, the “expected Cmin” value came to 111 ng/mL and the “expected Cavg” value was 143 ng/mL. In series [2] (setting [8]), the AUC0-24 was 3429 ng·h/mL, the Cmax is listed as 190 ng/mL and the Cmin was 111 ng/mL. Besides, in series [2] (setting [9]), the AUC0-24 was 3763 (1275) ng * h/ml, the Cmax is given as 239 (81) ng/mL and the Cmin is given as 81 (36) ng/mL. Moreover, in series [3], the AUCinf was 21501 µg·min/L, the Cmax was 193 µg/L and the Tmax is reported as 22 min.

With `COc1cccc(C2(O)CCCCC2CN(C)C)c1` (single isomer, unassigned; (-)) [(−)-trans-T], in series [1], the “expected Cmax” value was 157 ng/mL, the “expected Cmin” value worked out at 86 ng/mL and the “expected Cavg” value came to 113 ng/mL. Moreover, in series [2] (setting [8]), the AUC0-24 was 2719 ng·h/mL, the Cmax is 157 ng/mL and the Cmin is on record as 86 ng/mL. For the same molecule, in series [2] (setting [9]), the AUC0-24 is given as 3005 (1120) ng * h/ml, the Cmax is listed as 199 (75) ng/mL and the Cmin is 62 (30) ng/mL. Moreover, in series [3], the AUCinf was 5257 µg·min/L, the Cmax was 74 µg/L and the Tmax is on record as 22 min.

`NCC1(CC(=O)O)CCCCC1` [Gabapentin, gabapentin]: the “expected Cavg” value in series [1] worked out at 1890 ng/mL. In addition, in series [4], the “dose up to which serum concentrations increase linearly” value is on record as “up to 1800 mg/d”. Further, the 50% effective dose (ED50) in the series on Chung model is listed as 439.50 mg/kg. In series [5], the AUCinf is 32800 ng·h/mL, the Cmax was 6850 ng/mL and the Tmax was 108 min. In addition, the “AUCinf for gabapentin relative to that for (±) tramadol and (±) O-demthyltramadol” value in series [6] (Chung model (rat)) was determined as 6.77 fold.

For the molecule `COc1cccc(C2(O)CCCCC2CN(C)C)c1` (stereo not shown) [tramadol HCl], the ED50 with Chung model is 94.47 mg/kg.

Regarding `COc1cccc(C2(O)CCCCC2CN(C)C)c1` (racemic) [tramadol], in series [7] (setting [10]), the “AUC0-12 at steady state” value is 2970 ng·h/mL and the “Cmax at steady state” value is 414 ng/mL. Further, the “Cmax and AUCinf versus dose” value in series [7] (tramadol 400 mg given) was “proportional to the dose”.

As for `CN(C)CC1CCCCC1(O)c1cccc(O)c1` (single isomer, unassigned; (+)) [(+) M1, trans-O-demethyltramadol], in series [1], the “expected Cmax” value came to 36 ng/mL, the “expected Cmin” value worked out at 21 ng/mL and the “expected Cavg” value is 11 ng/mL. In series [2] (setting [8]), the AUC0-24 was 644 ng·h/mL, the Cmax is given as 36 ng/mL and the Cmin is 21 ng/mL. Also, in series [2] (setting [9]), the AUC0-24 was 704.12 (327.09) ng * h/ml, the Cmax is listed as 42 (18.4) ng/mL and the Cmin is recorded as 16.71 (10.41) ng/mL. Also, in series [3] (10 mg/kg), the AUCinf is listed as 16242 (2648) μg L^−1 min, the Cmax is 136 (32) μg/L and the Tmax is reported as 34 (21) min.

With `CN(C)CC1CCCCC1(O)c1cccc(O)c1` (racemic) [(±) M1, trans-O-demethyltramadol], in series [6] (setting [11]), the “expected AUCinf” value was 523 ng·h/mL and the “expected Cmax” value is 331 ng/mL.

Consider `CN(C)CC1CCCCC1(O)c1cccc(O)c1` (single isomer, unassigned; (-)) [(−) M1, trans-O-demethyltramadol], for which, in series [1], the “expected Cmax” value came to 43 ng/mL, the “expected Cmin” value turned out to be 22 ng/mL and the “expected Cavg” value is 12 ng/mL. Besides, in series [2] (setting [8]), the AUC0-24 is 690 ng·h/mL, the Cmax is reported as 43 ng/mL and the Cmin is given as 22 ng/mL. Also, in series [2] (setting [9]), the AUC0-24 is reported as 745 (286) ng * h/ml, the Cmax is 46 (18) ng/mL and the Cmin is 16 (8) ng/mL. In series [3] (10 mg/kg), the AUCinf is on record as 21178 (1987) μg L^−1 min, the Cmax was 195 (63) μg/L and the Tmax is on record as 41 (24) min.
